The record followed here is ChEMBL document CHEMBL4715758, “Hit-to-Lead Optimization of a Novel Class of Potent, Broad-Spectrum Trypanosomacides” (J Med Chem, 2016).

Series [1] in a line: Toxicity in Balb/c mouse infected with Trypanosoma cruzi Brazil trypomastigotes coexpressing luciferase assessed as hunched-back posture at 50 mg/kg, po BID administered for 5 days. Type of series: organism-based. To be noted: in vivo, 120 h, time 5 day.
The subject of series [2] is Trypanosoma cruzi. The experiment in a line: Antitrypanosomal activity against Trypanosoma cruzi Brazil trypomastigotes coexpressing luciferase infected in BALB/c mouse model assessed as reduction in parasite load at 50 mg/kg, po BID administered for 5 days followed by cyclophosphamide addition 30 days post last dose and measured 10 days post cyclophosphamide addition. Type of series: functional, organism-based. To be noted: time 45.0 day.

Series [3] in a line: AUClast (0 to t) in Balb/c mouse at 50 mg/kg, po administered via gavage. Type of series: ADME, organism-based. Set-up: time 0 - last, route oral, dose 50 mg/kg. To be noted: in vivo.
Series [4] is described as follows: Cmax in Balb/c mouse at 50 mg/kg, po administered via gavage in presence of 1-aminobenzotriazole. Type of series: ADME, organism-based. The arrangement: route oral, dose 50 mg/kg. To be noted: in vivo.
Series [5] can be described thus: Tmax in Balb/c mouse at 50 mg/kg, po administered via gavage. In kind it is ADME, organism-based. To be noted: in vivo.
A short description of series [6]: Dose normalized Cmax in Balb/c mouse at 50 mg/kg, po administered via gavage. In kind it is ADME, organism-based. To be noted: in vivo.
The subject of series [7] is Trypanosoma brucei brucei. The experiment in a line: Antitrypanosomal activity against Trypanosoma brucei brucei Lister 427 strain blood stream forms incubated for 48 hrs by resazurin dye based fluorescence assay. In kind it is functional, organism-based. To be noted: Lister 427, 48 h. A general note: Resazurin is reduced to fluorescent resorufin, in cell work by metabolically active cells.

Series [8] is described as follows: Selectivity index, ratio of IC50 for cytotoxicity against human HEK293 cells assessed as reduction in cell viability to IC50 for antitrypanosomal activity against Trypanosoma brucei brucei Lister 427 blood stream form. To be noted: read-out: Ratio IC50. Type of series: toxicity, cell-based.
The nature of series [9]: Toxicity in Balb/c mouse infected with Trypanosoma cruzi Brazil trypomastigotes coexpressing luciferase assessed as low resistance to handling at 50 mg/kg, po BID administered for 5 days. Type of series: organism-based. To be noted: in vivo, 120 h, time 5 day.
The subject of series [10] is Trypanosoma cruzi. Put plainly: Antitrypanosomal activity against Trypanosoma cruzi Brazil trypomastigotes coexpressing luciferase infected in BALB/c mouse model assessed as reduction in parasite load at 50 mg/kg, po BID administered for 5 days measured after 10 days. To be noted: time 10.0 day. Type of series: functional, organism-based.
Series [11] is described as follows: Dose normalized AUClast in Balb/c mouse at 50 mg/kg, po administered via gavage. To be noted: in vivo. In kind it is ADME, organism-based.
A short description of series [12]: Intrinsic clearance in mouse liver microsomes assessed per mg protein measured after 60 mins in presence of NADPH generating system by LC-MS analysis. To be noted: read-out: CLH. Type of series: ADME, Microsome. (Liver microsomes are vesicles of endoplasmic reticulum, rich in cytochrome P450 enzymes.)
Series [13] relates to Trypanosoma cruzi. The experiment in a line: Antitrypanosomal activity against Trypanosoma cruzi Tulahuen strain trypomastigotes infected in rat H9c2 cells incubated for 72 hrs by DRAQ5 DNA dye based imaging analysis. Type of series: functional, organism-based. To be noted: H9c2, 72 h.
Series [14] is described as follows: Tmax in Balb/c mouse at 50 mg/kg, po administered via gavage in presence of 1-aminobenzotriazole. In kind it is ADME, organism-based. To be noted: in vivo.
A short description of series [15]: Dose normalized Cmax in Balb/c mouse at 50 mg/kg, po administered via gavage in presence of 1-aminobenzotriazole. Type of series: ADME, organism-based. To be noted: in vivo.
Series [16] in a line: Metabolic stability in mouse liver microsomes assessed as degradation half-life measured after 60 mins in presence of NADPH generating system by LC-MS analysis. In kind it is ADME, Microsome. To be noted: read-out: T50.
The nature of series [17]: AUClast (0 to t) in Balb/c mouse at 50 mg/kg, po administered via gavage in presence of 1-aminobenzotriazole. In kind it is ADME, organism-based. The arrangement: route oral, time 0 - last, dose 50 mg/kg. To be noted: in vivo.
Series [18] in a line: Selectivity index, ratio of IC50 for cytotoxicity against rat H9c2 cells assessed as reduction in cell viability to IC50 for antitrypanosomal against Trypanosoma cruzi Tulahuen trypomastigotes infected in rat H9c2 cells. To be noted: read-out: Ratio IC50. Type of series: toxicity, cell-based.
Series [19] in a line: Toxicity in Balb/c mouse infected with Trypanosoma cruzi Brazil trypomastigotes coexpressing luciferase assessed as ruffled fur at 50 mg/kg, po BID administered for 5 days. In kind it is organism-based. To be noted: in vivo, 120 h, time 5 day.
A short description of series [20]: Dose normalized AUClast in Balb/c mouse at 50 mg/kg, po administered via gavage in presence of 1-aminobenzotriazole. Type of series: ADME, organism-based. To be noted: in vivo.
A short description of series [21]: Metabolic stability in human liver microsomes assessed as half-life measured after 60 mins in presence of NADPH generating system by LC-MS analysis. In kind it is ADME, Microsome.
Series [22] in a line: Cmax in Balb/c mouse at 50 mg/kg, po administered via gavage. In kind it is ADME, organism-based. The arrangement: route oral, dose 50 mg/kg. To be noted: in vivo.
The nature of series [23]: Intrinsic clearance in human liver microsomes assessed per mg protein measured after 60 mins in presence of NADPH generating system by LC-MS analysis. Type of series: ADME, Microsome. To be noted: read-out: CLH.
A short description of series [24]: Metabolic stability in human liver microsomes assessed as degradation half-life measured after 60 mins in presence of NADPH generating system by LC-MS analysis. In kind it is ADME, Microsome. To be noted: read-out: T50.
Series [25] can be described thus: Kinetic solubility of compound at pH 2 by nephelometry. Type of series: physicochemical. To be noted: buffer, read-out: Kinetic_solubility.
Series [26] has as its system Trypanosoma cruzi. The experiment in a line: Antitrypanosomal activity against Trypanosoma cruzi Tulahuen C4 strain amastigotes infected in rat L6 cells measured after 96 hrs by inverted microscopy analysis. In kind it is functional, organism-based. To be noted: Tulahuen C4, L6, 96 h.
A further series relates to Leishmania donovani. The experiment in a line: Antileishmanial activity against Leishmania donovani MHOM/ET/67/L82 amastigotes measured after 72 hrs by alamar blue dye based fluorimetry analysis. Type of series: functional, organism-based. To be noted: MHOM/ET/67/L82, 72 h.
The subject of series [27] is Trypanosoma cruzi. The experiment in a line: Antitrypanosomal activity against Trypanosoma cruzi infected in vero cells assessed as reduction in parasite growth inhibition incubated for 96 hrs by time kill assay relative to nifurtimox. In kind it is functional.
Series [28] is described as follows: Drug metabolism in human liver microsomes assessed as hydroxylation by measuring 3-fluoro-N-(2-hydroxy-2-(2-phenylthiazol-4-yl)ethyl)benzamide formation in presence of NADPH measured after 60 mins by LC-MS analysis. Type of series: ADME, Microsome. To be noted: 1 h.
The nature of series [29]: Drug metabolism in human liver microsomes assessed as secondary hydroxylation by measuring N-(2-(4-(2,4-difluorophenyl)thiazol-2-yl)ethyl)piperidine-1-carboxamide metabolite formation in presence of NADPH measured after 60 mins by LC-MS analysis. To be noted: 1 h. In kind it is ADME, Microsome.
The test system of series [30] is Trypanosoma cruzi. The experiment in a line: Antitrypanosomal activity against Trypanosoma cruzi infected in vero cells assessed as parasite growth inhibition incubated from 24 to 96 hrs by time kill assay. Type of series: functional, organism-based.
For the next series, the system named is Vero. The experiment in a line: Cytotoxicity against African green monkey Vero cells assessed as reduction in cell viability. Type of series: cell-based. To be noted: chlorocebus sabaeus.
A short description of series [31]: Protein binding in human plasma by HPLC-MS analysis. In kind it is ADME, cell-free. To be noted: read-out: PPB (converted).
For series [32], the system named is Trypanosoma cruzi. The experiment in a line: Inhibition of Trypanosoma cruzi Tulahuen C4 CYP51 expressed in Escherichia coli JM109 using BOMCC as substrate in presence of NADPH by fluorescence assay.
The nature of series [33]: Metabolic stability in human liver microsome assessed as compound degradation measured over 60 mins in absence of cofactor by LC-MS analysis. Type of series: ADME. To be noted: liver microsomes, read-out: Drug degradation.
Series [34] is described as follows: Partition coefficient, log D of compound at pH 7.4 by HPLC. Type of series: physicochemical. To be noted: octanol/water.
Another series concerns Plasmodium falciparum. The experiment in a line: Antiplasmodial activity against chloroquine and pyrimethamine resistant erythrocytic stage of Plasmodium falciparum K1 strain assessed as reduction in [3H]hypoxanthine incorporation measured after 48 hrs by liquid scintillation counting method. In kind it is functional, organism-based.
A short description of series [35]: Drug metabolism in human liver microsomes assessed as hydroxylation by measuring 3-fluoro-N-(2-(2-(4-hydroxyphenyl)thiazol-4-yl)ethyl)benzamide formation in presence of NADPH measured after 60 mins by LC-MS analysis. Type of series: ADME, Microsome. To be noted: 1 h.
Series [36] in a line: Drug metabolism in human liver microsomes assessed as oxidative dealkylation by measuring 2-(2-phenylthiazol-4-yl)-ethanol formation in presence of NADPH measured after 60 mins by LC-MS analysis. In kind it is ADME, Microsome. To be noted: 1 h.
The nature of series [37]: Drug metabolism in human liver microsomes assessed as N-(2-(4-(2,4-difluorophenyl)thiazol-2-yl)ethyl)piperidine-1-carboxamide metabolite formation in presence of NADPH and UDPGA measured after 60 mins by LC-MS analysis. Type of series: ADME, Microsome. To be noted: 1 h.
A further series has as its system L6. Put plainly: Cytotoxicity against rat L6 cells assessed as reduction in cell viability measured after 72 hrs by alamar blue dye based fluorimetry analysis. To be noted: L6, 72 h.
Series [38] is described as follows: Drug metabolism in human liver microsomes assessed as 2-(2-phenylthiazol-4-yl)-ethanol metabolite formation in presence of NADPH and UDPGA measured after 60 mins by LC-MS analysis. In kind it is ADME, Microsome. To be noted: 1 h.

The structures appear in SMILES notation. ≈ marks a conversion by molar mass, not a printed value. Calls of active or inactive are those of the source. The rule behind the calls is not given here.

The AUC(0-t) is exposure summed from dosing to a finite time, without extrapolation to infinity. As a reminder, the Cmax is the maximum level reached in the sampled fluid or tissue. For orientation: Tmax means the time at which the peak concentration occurs. The IC50 is the concentration that gives 50% inhibition. In the case of `O=C(NCCc1csc(-c2ccc(F)cc2F)n1)N1CCCCC1`, the Activity entry in series [1], in series [9] and in series [19] was “Toxic” throughout. For the same compound, in the series with Trypanosoma cruzi [2], the result was inactive. Further, the values for the AUC(0-t) in series [3] and in [17] were 127 ng·h/mL and 14800 ng·h/mL, respectively. Further, the figures for the Cmax in [4] and in series [22] were 7090 ng/mL and 212 ng/mL, respectively. In addition, the figures for the Tmax in [5] and in series [14] were 15 min and 30 min, respectively. Further, the Cmax/dose in series [6] worked out at 4.3 kg·ng/mL/mg; in series [15], 142 kg·ng/mL/mg. The figures for the IC50 (in series [7]; in the series with Trypanosoma cruzi [13]) were 24 nM and 20 nM, respectively. Also, the selectivity ratio in [8] was 433; in series [18], more than 3160. Besides, the result in the series on Trypanosoma cruzi [10] was Active. Further, the results for the AUClast/dose in series [11] and in series [20] were 2.54 ng·h/mL/mg/kg and 295 ng·h/mL/mg/kg, respectively. Further, the microsomal CLint in series [12] is more than 1600 µL/min/mg; in [23] it was 225 µL/min/mg. In addition, the half-life is less than 2 min in series [16], 5 min in series [21] and 8 min in series [24].

In general, logD refers to lipophilicity at a set pH, counting ionised and neutral species. `O=C(NCCc1csc(-c2ccccc2)n1)c1cccc(F)c1`: in series [25], the solubility kinetic worked out at 6 µg/mL (≈ 18.4 µM). Further, the IC50 with Trypanosoma cruzi [26] came to 200 nM; in the series with Leishmania donovani, 10000 nM; in the series on Trypanosoma cruzi [30], 400 nM; in the series with Trypanosoma cruzi [13], 500 nM; in the series with Plasmodium falciparum, 41000 nM; in the series with L6, 51000 nM. Besides, the Imax with Trypanosoma cruzi [27] was found to be 106%. In addition, the Drug metabolism result in [28], in series [29], in [35], in series [36], in series [37] and in series [38] was “Metabolite_Detected” throughout. For the same compound, in the series with Vero, the Activity came to 17 µM. The fraction unbound in series [31] was 0.04. For the same compound, the inhibition result in the series on Trypanosoma cruzi [32] was “inactive”. The metabolised at 1 h in [33] came out at 14%. In series [34], this compound registered a logD of 3.6. In addition, in series [23], the microsomal CLint turned out to be 484 µL/min/mg. The half-life in [24] is 4 min.
